Test results reported in patent US9593149B2, “Amylin and calcitonin receptor agonist” (Novo Nordisk A/S, priority 2014, dated 2017).
Converted amounts (≈) assume the structure as drawn. Numbered stars: 1 amine (or outer) side, 2 acyl side, 3 side chain; on linkers, the order of the positions; unused ones are H or OH. Peptide text beside a SMILES is read from it. * marks the point of attachment. C20 diacid = O=C(O)CCCCCCCCCCCCCCCCCCC(=O)*; C18 diacid = O=C(O)CCCCCCCCCCCCCCCCC(=O)*; γGlu = O=C(O)[C@H](CCC(=O)[*:2])N[*:1]; AEEA = NCCOCCOCC(=O)O

Test: Assay (IV) determination of solubility
Format: physicochemical
Protocol: Assay (IV)—Determination of Solubility
The mimylin peptide was dissolved in water at ˜500 nmol/ml and mixed 1:1 with a series of buffers (100 mM glycylglycine pH 3.0, 100 mM glycylglycine pH 4.0, 100 mM glycylglycine pH 5.0, 100 mM bistrispropane pH 6.0, 100 mM bistrispropane pH 6.5, 100 mM bistrispropane pH 7.0, 100 mM bistrispropane pH 7.5, 100 mM bistrispropane pH 8.0).

| Compound | Solubility (pH 3.0) | Solubility (pH 4.0) | solubility at 18 h (pH 5.0) [µM] | Solubility (pH 6.0) | Solubility (pH 6.5) | Solubility (pH 7.0) | Solubility (pH 7.5) | Solubility (pH 8.0) | solubility at 18 h (pH 4.0) [µM] | Solubility (pH 5.0) | solubility at 18 h (pH 3.0) [µM] |
| --- | --- | --- | --- | --- | --- | --- | --- | --- | --- | --- | --- |
| CC(C)C[C@H](NC(=O)[C@H](C)NC(=O)[C@H](C)NC(=O)[C@@H](NC(=O)[C@H](CO)NC(=O)[C@H](CC(C)C)NC(=O)[C@H](CCC(=O)O)NC(=O)[C@H](CO)NC(=O)[C@H](C)NC(=O)CC[C@H](NC(=O)CCCCCCCCCCCCCCCCCCC(=O)O)C(=O)O)[C@@H](C)O)C(=O)NCC(=O)N[C@@H](CCCNC(=N)N)C(=O)N[C@@H](CC(C)C)C(=O)N[C@@H](CO)C(=O)N[C@@H](C)C(=O)N[C@@H](CCC(=O)O)C(=O)N[C@@H](CC(C)C)C(=O)N[C@@H](Cc1cnc[nH]1)C(=O)N[C@@H](CCC(=O)O)C(=O)N[C@@H](CC(C)C)C(=O)N[C@@H](CO)C(=O)N[C@H](C(=O)N[C@@H](Cc1ccc(O)cc1)C(=O)N1CCC[C@H]1C(=O)N[C@@H](CCCNC(=N)N)C(=O)N[C@H](C(=O)N[C@@H](CCC(=O)O)C(=O)N[C@H](C(=O)NCC(=O)N[C@@H](CO)C(=O)NCC(=O)N[C@@H](CO)C(=O)N[C@@H](Cc1ccc(O)cc1)C(N)=O)[C@@H](C)O)[C@@H](C)O)[C@@H](C)O [compound 97, [N-terminal(C20 diacid-gGlu), des1, 21S, 23Y, 30S, 31G, 33Y]mimylin] ({C20 diacid-γGlu}-ASELSTAALGRLSAELHELSTYPRTETGSGSY-NH2) | ≧200 μM | ≧200 μM | 40 (≈ 152 µg/mL) | ≧200 μM | ≧200 μM | ≧200 μM | ≧200 μM | ≧200 μM | – | – | – |
| CC[C@H](C)[C@H](NC(=O)[C@H](C)NC(=O)[C@@H](NC(=O)[C@H](CO)NC(=O)[C@@H](NC(=O)[C@H](CCC(=O)O)NC(=O)[C@H](CO)NC(=O)[C@H](C)NC(=O)[C@H](CCC(=O)O)NC(=O)CCCCCCCCCCCCCCCCC(=O)O)[C@@H](C)CC)[C@@H](C)O)C(=O)N[C@H](C(=O)NCC(=O)N[C@@H](CCCNC(=N)N)C(=O)N[C@@H](CC(C)C)C(=O)N[C@@H](CO)C(=O)N[C@@H](C)C(=O)N[C@@H](CCC(=O)O)C(=O)N[C@@H](CC(C)C)C(=O)N[C@@H](Cc1cnc[nH]1)C(=O)N[C@@H](CCC(=O)O)C(=O)N[C@@H](CC(C)C)C(=O)N[C@@H](C)C(=O)N[C@H](C(=O)N[C@@H](CC(C)C)C(=O)N1CCC[C@H]1C(=O)N[C@@H](CCCNC(=N)N)C(=O)N[C@H](C(=O)N[C@@H](CCC(=O)O)C(=O)N[C@H](C(=O)NCC(=O)N1CCC[C@H]1C(=O)N[C@@H](CCC(=O)O)C(=O)N[C@@H](CO)C(=O)N1CCC[C@H]1C(N)=O)[C@@H](C)O)[C@@H](C)O)[C@@H](C)O)[C@@H](C)CC [compound 37, [N-terminal(C18 diacid), 5I, 9I, 10I]mimylin] ({C18 diacid}-EASEISTAIIGRLSAELHELATLPRTETGPESP-NH2) | ≧200 μM | – | – | ≧200 μM | ≧200 μM | ≧200 μM | ≧200 μM | ≧200 μM | 18 (≈ 67.9 µg/mL) | ≧200 μM | – |
| CC(C)C[C@H](NC(=O)CNC(=O)[C@H](CO)NC(=O)[C@H](C)NC(=O)CC[C@H](NC(=O)CCCCCCCCCCCCCCCCCCC(=O)O)C(=O)O)C(=O)N[C@@H](CO)C(=O)N[C@H](C(=O)N[C@@H](C)C(=O)N[C@H](C(=O)N[C@@H](CC(C)C)C(=O)NCC(=O)N[C@@H](CCCNC(=N)N)C(=O)N[C@@H](CC(C)C)C(=O)N[C@@H](CO)C(=O)N[C@@H](CCC(N)=O)C(=O)N[C@@H](CCC(=O)O)C(=O)N[C@@H](CC(C)C)C(=O)N[C@@H](Cc1cnc[nH]1)C(=O)N[C@@H](CCC(=O)O)C(=O)N[C@@H](CC(C)C)C(=O)N[C@@H](CCC(N)=O)C(=O)N[C@H](C(=O)N[C@@H](Cc1ccc(O)cc1)C(=O)N1CCC[C@H]1C(=O)N[C@@H](CCCNC(=N)N)C(=O)N[C@H](C(=O)N[C@@H](CCC(=O)O)C(=O)N[C@H](C(=O)NCC(=O)N[C@@H](CO)C(=O)N[C@@H](C)C(=O)N[C@H](C(=O)N[C@@H](Cc1ccc(O)cc1)C(N)=O)[C@@H](C)O)[C@@H](C)O)[C@@H](C)O)[C@@H](C)O)C(C)C)[C@@H](C)O [compound 122, [N-terminal(C20 diacid-gGlu), des1, 4G, 9V, 15Q, 21Q, 23Y, 30S, 31A, 32T, 33Y]mimylin] ({C20 diacid-γGlu}-ASGLSTAVLGRLSQELHELQTYPRTETGSATY-NH2) | ≧200 μM | ≧200 μM | 32 (≈ 124 µg/mL) | ≧200 μM | ≧200 μM | ≧200 μM | ≧200 μM | ≧200 μM | – | – | – |
| CC(C)C[C@H](NC(=O)[C@H](CCC(=O)O)NC(=O)[C@H](Cc1cnc[nH]1)NC(=O)[C@H](CC(C)C)NC(=O)[C@H](CCC(=O)O)NC(=O)[C@H](C)NC(=O)[C@H](CO)NC(=O)[C@H](CC(C)C)NC(=O)[C@H](CCCNC(=N)N)NC(=O)CNC(=O)[C@H](CC(C)C)NC(=O)[C@@H](NC(=O)[C@H](C)NC(=O)[C@@H](NC(=O)[C@H](CO)NC(=O)[C@H](CC(C)C)NC(=O)[C@@H]1CCCN1C(=O)[C@H](CO)NC(=O)[C@H](C)NC(=O)[C@H](CCC(=O)O)NC(=O)CCCCCCCCCCCCCCCCC(=O)O)[C@@H](C)O)C(C)C)C(=O)N[C@@H](C)C(=O)N[C@H](C(=O)N[C@@H](CC(C)C)C(=O)N1CCC[C@H]1C(=O)N[C@@H](CCCNC(=N)N)C(=O)N[C@H](C(=O)N[C@@H](CCC(=O)O)C(=O)N[C@H](C(=O)NCC(=O)N1CCC[C@H]1C(=O)N[C@@H](CCC(=O)O)C(=O)N[C@@H](CO)C(=O)N1CCC[C@H]1C(N)=O)[C@@H](C)O)[C@@H](C)O)[C@@H](C)O [compound 30, [N-terminal(C18 diacid), 4P, 9V]mimylin] ({C18 diacid}-EASPLSTAVLGRLSAELHELATLPRTETGPESP-NH2) | ≧200 μM | ≧200 μM | – | ≧200 μM | ≧200 μM | ≧200 μM | ≧200 μM | ≧200 μM | – | ≧200 μM | – |
| CC(C)C[C@H](NC(=O)[C@H](C)NC(=O)[C@H](C)NC(=O)[C@@H](NC(=O)[C@H](CO)NC(=O)[C@H](CC(C)C)NC(=O)[C@H](CCC(=O)O)NC(=O)[C@H](CO)NC(=O)[C@H](C)NC(=O)COCCOCCNC(=O)COCCOCCNC(=O)COCCOCCNC(=O)COCCOCCNC(=O)CC[C@H](NC(=O)CCCCCCCCCCCCCCCCCCC(=O)O)C(=O)O)[C@@H](C)O)C(=O)NCC(=O)N[C@@H](CCCNC(=N)N)C(=O)N[C@@H](CC(C)C)C(=O)N[C@@H](CO)C(=O)N[C@@H](C)C(=O)N[C@@H](CCC(=O)O)C(=O)N[C@@H](CC(C)C)C(=O)N[C@@H](Cc1cnc[nH]1)C(=O)N[C@@H](CCC(=O)O)C(=O)N[C@@H](CC(C)C)C(=O)N[C@@H](C)C(=O)N[C@H](C(=O)N[C@@H](CC(C)C)C(=O)N1CCC[C@H]1C(=O)N[C@@H](CCCNC(=N)N)C(=O)N[C@H](C(=O)N[C@@H](CCC(=O)O)C(=O)N[C@H](C(=O)NCC(=O)N[C@@H](CO)C(=O)NCC(=O)N[C@@H](CO)C(=O)N1CCC[C@H]1C(N)=O)[C@@H](C)O)[C@@H](C)O)[C@@H](C)O [compound 44, [N-terminal(C20 diacid-gGlu-4xOEG), des1, 30S, 31G]mimylin] ({C20 diacid-γGlu-AEEA-AEEA-AEEA-AEEA}-ASELSTAALGRLSAELHELATLPRTETGSGSP-NH2) | ≧200 μM | ≧200 μM | – | ≧200 μM | ≧200 μM | ≧200 μM | ≧200 μM | ≧200 μM | – | ≧200 μM | – |
| CC(C)C[C@H](NC(=O)[C@H](CCCNC(=N)N)NC(=O)CNC(=O)[C@H](CC(C)C)NC(=O)[C@@H](NC(=O)[C@H](C)NC(=O)[C@@H](NC(=O)[C@H](CO)NC(=O)[C@@H](NC(=O)[C@H](CCC(=O)O)NC(=O)[C@H](CO)NC(=O)[C@H](C)NC(=O)[C@H](CCC(=O)O)NC(=O)CCCCCCCCCCCCCCCCC(=O)O)C(C)C)[C@@H](C)O)C(C)C)C(=O)N[C@@H](CO)C(=O)N[C@@H](C)C(=O)N[C@@H](CCC(=O)O)C(=O)N[C@@H](CC(C)C)C(=O)N[C@@H](Cc1cnc[nH]1)C(=O)N[C@@H](CCC(=O)O)C(=O)N[C@H](C(=O)N[C@@H](C)C(=O)N[C@H](C(=O)N[C@@H](CC(C)C)C(=O)N1CCC[C@H]1C(=O)N[C@@H](CCCNC(=N)N)C(=O)N[C@H](C(=O)N[C@@H](CCC(=O)O)C(=O)N[C@H](C(=O)NCC(=O)N1CCC[C@H]1C(=O)N[C@@H](CCC(=O)O)C(=O)N[C@@H](CO)C(=O)N1CCC[C@H]1C(N)=O)[C@@H](C)O)[C@@H](C)O)[C@@H](C)O)C(C)C [compound 36, [N-terminal(C18 diacid), 5V, 9V, 20V]mimylin] ({C18 diacid}-EASEVSTAVLGRLSAELHEVATLPRTETGPESP-NH2) | – | – | 10 (≈ 37.3 µg/mL) | ≧200 μM | ≧200 μM | ≧200 μM | ≧200 μM | ≧200 μM | 9 (≈ 33.6 µg/mL) | – | 117 (≈ 436 µg/mL) |
